Data reported in patent US11660303B2, “2-phenylimidazo[4,5-b]pyridin-7-amine derivates useful as inhibitors of mammalian tyrosine kinase ROR1 activity” (KANCERA AB, priority 2016, dated 2023).

Key:
[1] = system: PBMC from healthy volunteers; test: CellTiter-Blue Cell Viability Assay, PBMC from healthy volunteers; format: cell-based; conditions: Homo sapiens, cell toxicity, culture 24, 48 and 72 h (time of the values not stated)
Procedure: (§1) The CellTiter-Blue® Cell Viability Assay provides a homogeneous, fluorometric method for estimating the number of viable cells present in multi-well plates. The assay uses the indicator dye resazurin to measure the metabolic capacity of cells. Viable cells retain the ability to reduce resazurin into resorufin, which is highly fluorescent.
(§2) Stock solutions (10 or 100 mM in DMSO) of compounds were serially diluted 1:2 in 11 concentrations and 25 nL/well (100 mM stock) or 50 nL/well (10 mM stock) were acoustically dispensed in assay plates with an EDC acoustic dispenser. Final starting concentration in the assay was 20 μM (0.2% DMSO) or 100 μM (0.1% DMSO) for test compounds.
(§3) Peripheral blood mononuclear cells (PBMC) from CLL patients or healthy volunteers were seeded in assay plates (384-well black/clear, Greiner #781091) pre-dispensed with compounds, 25 μL/well, and cultured for 24, 48 and 72 h. The cell concentration was 50 000 cells/well for PBMC from CLL patients or healthy volunteers. After 24, 48 and 72 h culture, Celltiter Blue reagent was added (5 μL/well) and the plates were incubated for 2 h. The plates were read in an Envision fluorescence reader (PerkinElmer) with Ex544 nm/Em590 nm. Results were calculated as % cytotoxicity compared to background (cells treated with 0.2% DMSO).
(§4) Thus, IC50 values for cell toxicity in PBMC from CLL patients as well as healthy volunteers for some compounds of the invention are shown in Table 3 as measured by the CellTiter-Blue® Cell Viability Assay.

PBMC from CLL patients = test: CellTiter-Blue Cell Viability Assay, PBMC from CLL patients; format: cell-based; conditions: Homo sapiens, cell toxicity, culture 24, 48 and 72 h (time of the values not stated)
Procedure: as §1, §2, §3, §4

Compound | IC50 [1] [nM] | IC50 (PBMC from CLL patients) [nM]
COCCCN1CCN(c2ccc(-c3nc4c(NC5CCN(CCOC)CC5)c(Cl)cnc4[nH]3)cc2)CC1 [Example 308, 6-Chloro-N-[1-(2-methoxyethyl)piperidin-4-yl]-2-{4-[4-(3-methoxypropyl)piperazin-1-yl]phenyl}-3H-imidazo[4,5-b]pyridin-7-amine] | > 20000 | 650
CN1CCC(Nc2c(Br)cnc3[nH]c(-c4ccc(N5CCN(c6ccncc6)CC5)cc4)nc23)CC1 [Example 16, 6-Bromo-N-(1-methylpiperidin-4-yl)-2-[4-(4-pyridin-4-ylpiperazin-1-yl)phenyl]-3H-imidazo[4,5-b]pyridin-7-amine] | 17200 | 80
COCCN1CCN(c2ccc(-c3nc4c(NC5CCN(Cc6ccc(OC)cc6)CC5)c(Cl)cnc4[nH]3)cc2)CC1=O [Example 260] | > 20000 | 220
CN1CCC(Nc2c(Cl)cnc3[nH]c(-c4ccc(N5CCNC(=O)C5)cc4)nc23)CC1 [Example 37, 4-(4-{6-Chloro-7-[(1-methylpiperidin-4-yl)amino]-3H-imidazo[4,5-b]pyridin-2-yl}phenyl)piperazin-2-one] | > 20000 | 290
COCCN1CCN(c2ccc(-c3nc4c(NC5CCN(CCC#N)CC5)c(Cl)cnc4[nH]3)cc2)CC1 [Example 396, 3-{4-[(6-Chloro-2-{4-[4-(2-methoxyethyl)piperazin-1-yl]phenyl}-3H-imidazo[4,5-b]pyridin-7-yl)amino]piperidin-1-yl}propanenitrile] | > 20000 | 190
Cc1noc(C)c1CN1CCN(c2ccc(-c3nc4c(NC5CCN(C)CC5)c(Cl)cnc4[nH]3)cc2)CC1 [Example 119, 6-Chloro-2-(4-{4-[(3,5-dimethylisoxazol-4-yl)methyl]piperazin-1-yl}phenyl)-N-(1-methylpiperidin-4-yl)-3H-imidazo[4,5-b]pyridin-7-amine] | 17000 | 40
CN1CCC(Nc2c(Cl)cnc3[nH]c(-c4ccc(N5CCN(Cc6ccccc6)C(=O)C5)cc4)nc23)CC1 [Example 291, 1-Benzyl-4-(4-{6-chloro-7-[(1-methylpiperidin-4-yl)amino]-3H-imidazo[4,5-b]pyridin-2-yl}phenyl)piperazin-2-one] | 6500 | 40
CCN1CCN(c2ccc(-c3nc4c(NC5CCN(C)CC5)c(Br)cnc4[nH]3)cc2)CC1 [Example 10, 6-Bromo-2-[4-(4-ethylpiperazin-1-yl)phenyl]-N-(1-methylpiperidin-4-yl)-3H-imidazo[4,5-b]pyridin-7-amine] | > 20000 | 110
CCN1CCC(Nc2c(Br)cnc3[nH]c(-c4ccc(N5CCN(C)C(=O)C5)cc4)nc23)CC1 [Example 299, 4-(4-{6-Bromo-7-[(1-ethylpiperidin-4-yl)amino]-3H-imidazo[4,5-b]pyridin-2-yl}phenyl)-1-methylpiperazin-2-one] | > 20000 | 90
CCN1CCC(Nc2c(Br)cnc3[nH]c(-c4ccc(N5CCN(C(=O)c6ccncc6)CC5)cc4)nc23)CC1 [Example 331, 6-Bromo-N-(1-ethylpiperidin-4-yl)-2-{4-[4-(pyridin-4-ylcarbonyl)piperazin-1-yl]phenyl}-3H-imidazo[4,5-b]pyridin-7-amine] | > 20000 | 190
CN1CCC(Nc2c(Cl)cnc3[nH]c(-c4ccc(N5CCN(C)CC5)cc4)nc23)CC1 [Example 2, 6-Chloro-2-[4-(4-methylpiperazin-1-yl)phenyl]-N-(1-methylpiperidin-4-yl)-3H-imidazo[4,5-b]pyridin-7-amine] | > 20000 | 160
COCCN1CCN(c2ccc(-c3nc4c(NC5CCN(C)CC5)c(Cl)cnc4[nH]3)cc2)CC1=O [Example 230, 4-(4-{6-Chloro-7-[(1-methylpiperidin-4-yl)amino]-3H-imidazo[4,5-b]pyridin-2-yl}phenyl)-1-(2-methoxyethyl)piperazin-2-one] | > 20000 | 70
COc1ccc(CN2CCC(Nc3c(Cl)cnc4[nH]c(-c5ccc(N6CCN(S(C)(=O)=O)CC6)cc5)nc34)CC2)cc1 [Example 44, 6-Chloro-N-[1-(4-methoxybenzyl)piperidin-4-yl]-2-{4-[4-(methylsulfonyl)piperazin-1-yl]phenyl}-3H-imidazo[4,5-b]pyridin-7-amine] | > 20000 | 440
CCN1CCC(Nc2c(Br)cnc3[nH]c(-c4ccc(N5CCN(C(=O)c6cccnc6)CC5)cc4)nc23)CC1 [Example 304, 6-Bromo-N-(1-ethylpiperidin-4-yl)-2-{4-[4-(pyridin-3-ylcarbonyl)piperazin-1-yl]phenyl}-3H-imidazo[4,5-b]pyridin-7-amine] | > 20000 | 60
CCOCCN1CCN(c2ccc(-c3nc4c(NC5CCN(CCC#N)CC5)c(Br)cnc4[nH]3)cc2)CC1=O [Example 406, 3-{4-[(6-Bromo-2-{4-[4-(2-ethoxyethyl)-3-oxopiperrazin-1-yl]phenyl}-3H-imidazo[4,5-b]pyridin-7-yl)amino]piperidin-1-yl}propanenitrile] | > 20000 | 230
CC(C)N1CCC(Nc2c(Br)cnc3[nH]c(-c4ccc(N5CCN(Cc6ccncc6)CC5)cc4)nc23)CC1 [Example 151, 6-Bromo-N-[1-(1-methylethyl)piperidin-4-yl]-2-{4-[4-(pyridin-4-ylmethyl)piperazin-1-yl]phenyl}-3H-imidazo[4,5-b]pyridin-7-amine] | 13700 | 390
CCOCCN1CCN(c2ccc(-c3nc4c(NC5CCN(CC)CC5)c(Cl)cnc4[nH]3)cc2)CC1 [Example 70, 6-Chloro-2-{4-[4-(2-ethoxyethyl)piperazin-1-yl]phenyl}-N-(1-ethylpiperidin-4-yl)-3H-imidazo[4,5-b]pyridin-7-amine] | > 20000 | 160
COCCN1CCN(c2ccc(-c3nc4c(NC5CCN(C(C)C)CC5)c(Cl)cnc4[nH]3)cc2OC)CC1 [Example 387, 6-Chloro-2-{3-methoxy-4-[4-(2-methoxyethyl)piperazin-1-yl]phenyl}-N-[1-(1-methylethyl)piperidin-4-yl]-3H-imidazo[4,5-b]pyridin-7-amine] | > 20000 | 1300
CC(C)N1CCC(Nc2c(Cl)cnc3[nH]c(-c4ccc(N5CCN(Cc6cccnc6)CC5)cc4)nc23)CC1 [Example 168, 6-Chloro-N-[1-(1-methylethyl)piperidin-4-yl]-2-{4-[4-(pyridin-3-ylmethyl)piperazin-1-yl]phenyl}-3H-imidazo[4,5-b]pyridin-7-amine] | 17200 | 230
COCCC1CCN(c2ccc(-c3nc4c(NC5CCN(C)CC5)c(Cl)cnc4[nH]3)cc2)CC1 [Example 281, 6-Chloro-2-{4-[4-(2-methoxyethyl)piperidin-1-yl]phenyl}-N-(1-methylpiperidin-4-yl)-3H-imidazo[4,5-b]pyridin-7-amine] | 8400 | 60
CN1CCC(Nc2c(Cl)cnc3[nH]c(-c4ccc(N5CCOCC5)cc4)nc23)CC1 [Example 27, 6-Chloro-N-(1-methylpiperidin-4-yl)-2-(4-morpholin-4-ylphenyl)-3H-imidazo[4,5-b]pyridin-7-amine] | 17700 | 90
COCCC(=O)N1CCN(c2ccc(-c3nc4c(NC5CCN(C)CC5)c(Cl)cnc4[nH]3)cc2)CC1 [Example 276, 6-Chloro-2-{4-[4-(3-methoxypropanoyl)piperazin-1-yl]phenyl}-N-(1-methylpiperidin-4-yl)-3H-imidazo[4,5-b]pyridin-7-amine] | > 20000 | 50
CN1CCC(Nc2c(Br)cnc3[nH]c(-c4ccc(N5CCN(Cc6ccccn6)CC5)cc4)nc23)CC1 [Example 115, 6-Bromo-N-(1-methylpiperidin-4-yl)-2-{4-[4-(pyridin-2-ylmethyl)piperazin-1-yl]phenyl}-3H-imidazo[4,5-b]pyridin-7-amine] | 16200 | 40
